According to US9695155B2, “Herbicidal substituted pyrimidinyloxy benzene compounds” (E. I. DU PONT DE NEMOURS AND COMPANY, priority 2013, dated 2017):

Key:
[1] = test system: sedge, umbrella; assay: Test B flooded paddy test; assay type: in vivo, Cyperus difformis; conditions: Flood, 250 g ai/ha; 0 to 100 scale where 0 is no effect and 100 is complete control
How it was run: (§1)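 Evaluation is visual, against untreated controls, 13 to 15 days after treatment. Before treatment, plants reached the 2-leaf stage; pots were then flooded 3 cm deep, compound was added to the water, and that level was maintained. Ratings run 0 to 100, with 100 meaning complete control.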

[2] = test system: chickweed; assay: Test C postemergence; assay type: in vivo, Stellaria media; conditions: for Chickweed plant response rating / Plant response rating, Chickweed: scale 0 to 100 (0 no effect, 100 complete control)
How it was run: (§2)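 Plants were kept under greenhouse conditions for 13–15 days following spray. Pre-emergent application went to soil (loam–sand), post-emergent to foliage at 1–4 leaves. Evaluation: visual, percent control against untreated checks.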

[3] = test system: barnyardgrass; assay: Test B flooded paddy test; assay type: in vivo, Echinochloa crus-galli; conditions: Flood, 250 g ai/ha; 0 to 100 scale where 0 is no effect and 100 is complete control
How it was run: as §1

[4] = test system: barnyardgrass; assay: Test A preemergence; assay type: in vivo, Echinochloa crus-galli
How it was run: (§3)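 Scoring: eye-based comparison with untreated controls, 0 for no effect through 100 for complete control, at about day 10. Treatments: directed soil spray preemergence; foliar spray postemergence on 2–10 cm plants at the one- to two-leaf stage. Medium: loam soil with sand.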

[5] = test system: corn; assay: Test C postemergence; assay type: in vivo, Zea mays; conditions: for Corn plant response rating / Plant response rating, Corn: scale 0 to 100 (0 no effect, 100 complete control)
How it was run: as §2

[6] = test system: pigweed; assay: Test A preemergence; assay type: in vivo, Amaranthus retroflexus
How it was run: as §3

[7] = test system: Italian ryegrass; assay: Test C postemergence; assay type: in vivo, Lolium multiflorum; conditions: for Plant response rating, Ryegrass, Italian / Ryegrass, Italian plant response rating: scale 0 to 100 (0 no effect, 100 complete control)
How it was run: as §2

[8] = test system: morningglory; assay: Test A preemergence; assay type: in vivo, Ipomoea spp.
How it was run: as §3

[9] = test system: morningglory; assay: Test A postemergence; assay type: in vivo, Ipomoea spp.
How it was run: as §3

[10] = test system: large (Lg) crabgrass; assay: Test C postemergence; assay type: in vivo, Digitaria sanguinalis; conditions: for Crabgrass, Large plant response rating / Plant response rating, Crabgrass, Large: scale 0 to 100 (0 no effect, 100 complete control)
How it was run: as §2

[11] = test system: blackgrass; assay: Test C postemergence; assay type: in vivo, Alopecurus myosuroides; conditions: for Blackgrass plant response rating / Plant response rating, Blackgrass: scale 0 to 100 (0 no effect, 100 complete control)
How it was run: as §2

[12] = test system: pigweed; assay: Test A postemergence; assay type: in vivo, Amaranthus retroflexus
How it was run: as §3

[13] = test system: giant foxtail; assay: Test A preemergence; assay type: in vivo, Setaria faberii
How it was run: as §3

[14] = test system: giant foxtail; assay: Test C postemergence; assay type: in vivo, Setaria faberii; conditions: for Foxtail, Giant plant response rating / Plant response rating, Foxtail, Giant: scale 0 to 100 (0 no effect, 100 complete control)
How it was run: as §2

[15] = test system: johnsongrass; assay: Test C postemergence; assay type: in vivo, Sorghum halepense; conditions: for Johnsongrass plant response rating / Plant response rating, Johnsongrass: scale 0 to 100 (0 no effect, 100 complete control)
How it was run: as §2

[16] = 16 g ai/ha, postemergence, visual rating, 13 to 15 days
[17] = Postemergence, 31 g ai/ha, 13 to 15 days
[18] = 125 g ai/ha, 0 to 100 scale where 0 is no effect and 100 is complete control
[19] = 500 g ai/ha, 0 to 100 scale, 0 no effect, 100 complete control, approx. 10 days
[20] = 500 g ai/ha, 0 to 100 scale where 0 is no effect and 100 is complete control
[21] = 8 g ai/ha, postemergence, 0 is no effect, 100 is complete control
[22] = 16 g ai/ha, postemergence, 0 is no effect, 100 is complete control
[23] = 31 g ai/ha, postemergence, visual rating, 13 to 15 days
[24] = Postemergence, 62 g ai/ha, 13 to 15 days
[25] = 1000 g ai/ha, 0 to 100 scale, 0 no effect, 100 complete control, approx. 10 days
[26] = 1000 g ai/ha, 0 to 100 scale, 0 no effect, 100 complete control
[27] = 125 g ai/ha, postemergence, visual rating

## Fc1cnc(Oc2cccc(C(F)F)c2-n2cc(Cl)cn2)nc1 [Compound 94]
[1]
  Plant response rating, Sedge, Umbrella: 30
[2]; [16]
  Chickweed plant response rating: 10
[2]; 125 g ai/ha, postemergence
  Plant response rating (0 to 100), Chickweed: 70
[2]; [17]
  Plant response rating, Chickweed: 60
[2]; Postemergence, 62 g ai/ha
  Plant response rating, Chickweed: 60
[3]
  Plant response rating, Barnyardgrass: 0
[4]; [18]
  Plant response rating, Barnyardgrass: 80
[4]; [19]
  Barnyardgrass plant response rating: 100
[5]; [16]
  Corn plant response rating: 5
[5]; 125 g ai/ha, postemergence
  Plant response rating (0 to 100), Corn: 5
[5]; [17]
  Plant response rating, Corn: 5
[5]; Postemergence, 62 g ai/ha
  Plant response rating, Corn: 35
[6]; [18]
  Plant response rating, Pigweed: 100
[6]; [19]
  Pigweed plant response rating: 100
[7]; 125 g ai/ha, postemergence
  Plant response rating (0 to 100), Ryegrass, Italian: 5
[7]; [17]
  Plant response rating, Ryegrass, Italian: 0
[7]; Postemergence, 62 g ai/ha
  Plant response rating, Ryegrass, Italian: 0
[8]; [18]
  Plant response rating, Morningglory: 40
[8]; [19]
  Morningglory plant response rating: 90
[9]; [18]
  Plant response rating, Morningglory: 80
[9]; [20]
  Plant response rating, Morningglory: 100
[10]; [16]
  Crabgrass, Large plant response rating: 5
[10]; 125 g ai/ha, postemergence
  Plant response rating (0 to 100), Crabgrass, Large: 10
[10]; [17]
  Plant response rating, Crabgrass, Large: 5
[10]; Postemergence, 62 g ai/ha
  Plant response rating, Crabgrass, Large: 10
[11]; [16]
  Blackgrass plant response rating: 0
[11]; 125 g ai/ha, postemergence
  Plant response rating (0 to 100), Blackgrass: 5
[11]; [17]
  Plant response rating, Blackgrass: 5
[11]; Postemergence, 62 g ai/ha
  Plant response rating, Blackgrass: 5
[12]; [18]
  Plant response rating, Pigweed: 100
[12]; [20]
  Plant response rating, Pigweed: 100
[13]; [18]
  Plant response rating, Foxtail, Giant: 100
[13]; [19]
  Foxtail, Giant plant response rating: 100
[14]; [16]
  Foxtail, Giant plant response rating: 10
[14]; 125 g ai/ha, postemergence
  Plant response rating (0 to 100), Foxtail, Giant: 10
[14]; [17]
  Plant response rating, Foxtail, Giant: 10
[14]; Postemergence, 62 g ai/ha
  Plant response rating, Foxtail, Giant: 10
[15]; [16]
  Johnsongrass plant response rating: 5
[15]; 125 g ai/ha, postemergence
  Plant response rating (0 to 100), Johnsongrass: 5
[15]; [17]
  Plant response rating, Johnsongrass: 5
[15]; Postemergence, 62 g ai/ha
  Plant response rating, Johnsongrass: 5

## Clc1cnc(Oc2ccccc2-n2cc(I)nn2)nc1 [Compound 222]
[1]
  Plant response rating, Sedge, Umbrella: 70
[2]; [21]
  Plant response rating (0 to 100), Chickweed: 10
[2]; [22]
  Plant response rating (0 to 100), Chickweed: 60
[2]; [23]
  Chickweed plant response rating: 85
[2]; [24]
  Plant response rating, Chickweed: 100
[3]
  Plant response rating, Barnyardgrass: 0
[4]; [25]
  Barnyardgrass plant response rating: 100
[5]; [21]
  Plant response rating (0 to 100), Corn: 0
[5]; [22]
  Plant response rating (0 to 100), Corn: 5
[5]; [23]
  Corn plant response rating: 5
[5]; [24]
  Plant response rating, Corn: 0
[6]; [25]
  Pigweed plant response rating: 100
[7]; [21]
  Plant response rating (0 to 100), Ryegrass, Italian: 0
[7]; [22]
  Plant response rating (0 to 100), Ryegrass, Italian: 0
[7]; [23]
  Ryegrass, Italian plant response rating: 0
[7]; [24]
  Plant response rating, Ryegrass, Italian: 0
[8]; [25]
  Morningglory plant response rating: 100
[9]; [26]
  Plant response rating, Morningglory: 100
[10]; [21]
  Plant response rating (0 to 100), Crabgrass, Large: 5
[10]; [22]
  Plant response rating (0 to 100), Crabgrass, Large: 5
[10]; [23]
  Crabgrass, Large plant response rating: 5
[10]; [24]
  Plant response rating, Crabgrass, Large: 5
[11]; [21]
  Plant response rating (0 to 100), Blackgrass: 0
[11]; [22]
  Plant response rating (0 to 100), Blackgrass: 5
[11]; [23]
  Blackgrass plant response rating: 30
[11]; [24]
  Plant response rating, Blackgrass: 60
[12]; [26]
  Plant response rating, Pigweed: 100
[13]; [25]
  Foxtail, Giant plant response rating: 100
[14]; [21]
  Plant response rating (0 to 100), Foxtail, Giant: 0
[14]; [22]
  Plant response rating (0 to 100), Foxtail, Giant: 5
[14]; [23]
  Foxtail, Giant plant response rating: 5
[14]; [24]
  Plant response rating, Foxtail, Giant: 5
[15]; [21]
  Plant response rating (0 to 100), Johnsongrass: 0
[15]; [22]
  Plant response rating (0 to 100), Johnsongrass: 0
[15]; [23]
  Johnsongrass plant response rating: 10
[15]; [24]
  Plant response rating, Johnsongrass: 10

## Clc1cnc(Oc2cccc(Cl)c2-n2cc(I)cn2)nc1 [Compound 181]
[1]
  Plant response rating, Sedge, Umbrella: 85
[2]; [22]
  Plant response rating (0 to 100), Chickweed: 55
[2]; [23]
  Chickweed plant response rating: 75
[2]; [27]
  Plant response rating, Chickweed: 85
[2]; Postemergence, 62 g ai/ha
  Plant response rating, Chickweed: 80
[3]
  Plant response rating, Barnyardgrass: 0
[4]; 125 g ai/ha
  Barnyardgrass plant response rating (0 to 100 scale, 0 is no effect, 100 is complete control): 50
[4]; [20]
  Barnyardgrass plant response rating: 100
[5]; [22]
  Plant response rating (0 to 100), Corn: 5
[5]; [23]
  Corn plant response rating: 5
[5]; [27]
  Plant response rating, Corn: 5
[5]; Postemergence, 62 g ai/ha
  Plant response rating, Corn: 5
[6]; 125 g ai/ha
  Pigweed plant response rating (0 to 100 scale): 100
[6]; [20]
  Pigweed plant response rating: 100
[7]; [22]
  Plant response rating (0 to 100), Ryegrass, Italian: 0
[7]; [23]
  Ryegrass, Italian plant response rating: 0
[7]; [27]
  Plant response rating, Ryegrass, Italian: 10
[7]; Postemergence, 62 g ai/ha
  Plant response rating, Ryegrass, Italian: 5
[8]; 125 g ai/ha
  Morningglory plant response rating (0 to 100 scale): 0
[8]; [20]
  Morningglory plant response rating: 30
[9]; [18]
  Morningglory plant response rating: 90
[9]; [20]
  Plant response rating, Morningglory: 100
[10]; [22]
  Plant response rating (0 to 100), Crabgrass, Large: 5
[10]; [23]
  Crabgrass, Large plant response rating: 5
[10]; [27]
  Plant response rating, Crabgrass, Large: 10
[10]; Postemergence, 62 g ai/ha
  Plant response rating, Crabgrass, Large: 10
[11]; [22]
  Plant response rating (0 to 100), Blackgrass: 5
[11]; [23]
  Blackgrass plant response rating: 5
[11]; [27]
  Plant response rating, Blackgrass: 25
[11]; Postemergence, 62 g ai/ha
  Plant response rating, Blackgrass: 15
[12]; [18]
  Pigweed plant response rating: 100
[12]; [20]
  Plant response rating, Pigweed: 100
[13]; 125 g ai/ha
  Foxtail, Giant plant response rating (0 to 100 scale): 90
[13]; [20]
  Foxtail, Giant plant response rating: 100
[14]; [22]
  Plant response rating (0 to 100), Foxtail, Giant: 10
[14]; [23]
  Foxtail, Giant plant response rating: 10
[14]; [27]
  Plant response rating, Foxtail, Giant: 10
[14]; Postemergence, 62 g ai/ha
  Plant response rating, Foxtail, Giant: 25
[15]; [22]
  Plant response rating (0 to 100), Johnsongrass: 0
[15]; [23]
  Johnsongrass plant response rating: 5
[15]; [27]
  Plant response rating, Johnsongrass: 20
[15]; Postemergence, 62 g ai/ha
  Plant response rating, Johnsongrass: 5
